Laboratory results from article PMC9573696, “Experimental Examination of Solubility and Lipophilicity as Pharmaceutically Relevant Points of Novel Bioactive Hybrid Compounds” (Molecules, 2022).
Values after ≈ are worked out from the molar mass of the structure shown.

Tests used:
[1] = Partition in system 1-octanol/buffer pH 7.4, shake-flask method; type: physicochemical; conditions: for logP at 2 days / logD at 2 days: 1-octanol/buffer pH 7.4, pH 7.4, 1-octanol/buffer pH 7.4; for logP at 2 days: from concentrations in mole fraction; for logD at 2 days / logPo/b: from concentrations in mol∙L^−1; for sb × 10^6 (concentration in buffer) / so × 10^4 (concentration in 1-octanol) / xb × 10^7 (mole fraction in buffer) / xo × 10^5 (mole fraction in 1-octanol) / logPo/b: 1-octanol/buffer pH 7.4
Protocol: The partition coefficients of the new hybrid compounds in the model system 1-octanol/buffer pH 7.4 as a lipophilicity surrogate were determined experimentally. […] It is the lipophilic properties that allow the hybrids to move from the water phase to the less hydrophilic octanol phase, where the solute–solvent intermolecular interactions are more favourable. According to the results shown in Table 5, the order of changes in the partition coefficients logPo/b at T = 298.15 K, depending on the substituent nature, is expressed as the inequality: Cl- (1.65) < F- (2.40) < CH3- (2.50). Compounds I and II are the most lipophilic in the series of the studied substances, whereas the introduction of a chlorine atom considerably lowers the partition coefficient (~0.8 log units). This fact agrees with the common concept that lipophilic groups are usually hydrocarbon or fluorine-containing radicals. […] For drugs with such partition coefficients, there is a good balance between the solubility and permeability through passive diffusion and minimum metabolism due to the low binding capacity with enzymes.
The octanol/buffer pH 7.4 partition coefficient logPO/B is measured in a static mode using the shake-flask method. The procedure has been presented as standard in the Organization for Economic Cooperation and Development (OECD) guidelines for testing chemicals. The equipment described above was also used for the determination of the 1-octanol/water partition coefficients. […] The correctness of the obtained value of each compound was verified by checking the mass balance of the starting amount of the compound and the total amount of the compound partitioned between the two phases.
To aim evaluated transfer (partition) thermodynamic functions, the 1-octanol/buffer partition coefficients P^* o/b as the ratio of equilibrium concentrations in the organic (xo) and aqueous phases (xb) expressed in mole fractions were calculated: P* o/b = xo/xb(12)

C. utilis 84 = experiment: In vitro antifungal activity, microbroth dilution (MIC); type: cell-based; conditions: C. utilis 84
Protocol: (§1) The in vitro antifungal screening results of synthesized compounds was evaluated against three fungal strains: C. parapsilosis ATCC 22019, C. utilis 84, and C. glabrata 61L are summarized in Table 1.
(§2) The in vitro antifungal activity of the target compounds was measured by means of the minimal inhibitory concentrations (MIC) with fluconazole as the control drug. Procedure was carried out by the microbroth dilution method in 96-well plates according to the recommendations of the Clinical and Laboratory Standards Institute. The detailed information was reported previously. The investigated pathogenic species included C. parapsilosis ATCC 22019, C. utilis 84 and C. glabrata 61. The sensitivity was evaluated visually, after the incubation at 35 °C for 24 h and the value was compared with the growth density in the reference culture without the sample. Each test was conducted in triplicate.

C. glabrata 61L = experiment: as above; type: cell-based; conditions: C. glabrata 61L
Protocol: as §1, §2

[2] = tested on: C. parapsilosis ATCC 22019; experiment: as above; type: cell-based; conditions: C. parapsilosis ATCC 22019
Protocol: as §1, §2

[3] = Thermodynamic functions of transfer 1-octanol/buffer pH 7.4; type: physicochemical; conditions: 298.15 K
Protocol: The temperature variation of the partition coefficient provides enthalpic and entropic contributions to the free energy of transfer. The thermodynamic transfer functions for hybrids I–III in the 1-octanol/buffer pH 7.4 system were calculated by Equations (12)–(16) and are summarized in Table 6. The standard Gibbs energy values for all the compounds are negative. Therefore, the transfer from the aqueous medium to the organic phase within the studied temperature range is thermodynamically favourable and spontaneous. The standard transfer enthalpies of all the studied compounds are positive, which means the process is endothermic. Energy is consumed during the transfer to overcome the hydrophobic effects in water (destruction of the molecule solvate shell structure), destruction of the solvent–solute interactions in the aqueous medium and creation of a cavity in the organic phase where the solute molecules can enter.
The standard change in Gibbs free energy of transfer (∆trG^o) from the buffer to the organic phase was calculated by Equation (14):∆trG^o = −RTlnP*o/b(14)
The standard change entropy of transfer (∆trS^o) is determined as follows:∆trS^o = (∆trH^o − ∆trG^o)/T(15)

In the case of O=c1c2sc(=S)n(-c3ccc(Cl)cc3)c2ncn1CCCN1CCN(CC(O)(Cn2cncn2)c2ccc(F)cc2F)CC1 (stereo not shown) [III, 6-[3-[4-[2-(2,4-difluorophenyl)-2-hydroxy-3-(1H-1,2,4-triazol-1-yl)propyl]-1-piperazinyl]propyl]-2,3-dihydro-3-(4-chlorophenyl)-2-thioxo-thiazolo[4,5-d]pyrimidin-7(6H)-one], the logP at 2 days ([1]; 293.15 K) was 2.56, the logD at 2 days ([1]; 293.15 K) was 1.62 and the logP at 2 days ([1]; 298.15 K) was 2.59. For the same compound, the logP at 2 days ([1]; 303.15 K) was 2.61, the logP at 2 days ([1]; 308.15 K) was 2.64 and the logD at 2 days ([1]; 308.15 K) was 1.7. The logP at 2 days ([1]; 313.15 K) was 2.69, the logD at 2 days ([1]; 313.15 K) was 1.73 and the “sb × 10^6 (concentration in buffer)” value ([1]; 293.15 K) was 9.29 mol∙L^−1 (printed as sb × 10^6. For the same compound, the “so × 10^4 (concentration in 1-octanol)” value ([1]; 293.15 K) was 3.89 mol∙L^−1 (printed as so × 10^4, the “xb × 10^7 (mole fraction in buffer)” value ([1]; 293.15 K) was 1.69 mole fraction (printed as xb × and the “xo × 10^5 (mole fraction in 1-octanol)” value ([1]; 293.15 K) was 6.14 mole fraction (printed as xo ×. For the same compound, the “sb × 10^6 (concentration in buffer)” value ([1]; 298.15 K) was 8.77 mol∙L^−1 (printed as sb × 10^6, the “so × 10^4 (concentration in 1-octanol)” value ([1]; 298.15 K) was 3.90 mol∙L^−1 (printed as so × 10^4 and the “xb × 10^7 (mole fraction in buffer)” value ([1]; 298.15 K) was 1.60 mole fraction (printed as xb ×. The “xo × 10^5 (mole fraction in 1-octanol)” value ([1]; 298.15 K) was 6.17 mole fraction (printed as xo ×, the logPo/b ([1]; 298.15 K) was 1.65 and the “sb × 10^6 (concentration in buffer)” value ([1]; 303.15 K) was 8.29 mol∙L^−1 (printed as sb × 10^6. For the same compound, the “so × 10^4 (concentration in 1-octanol)” value ([1]; 303.15 K) was 3.91 mol∙L^−1 (printed as so × 10^4, the “xb × 10^7 (mole fraction in buffer)” value ([1]; 303.15 K) was 1.51 mole fraction (printed as xb × and the “xo × 10^5 (mole fraction in 1-octanol)” value ([1]; 303.15 K) was 6.21 mole fraction (printed as xo ×. For the same compound, the logPo/b ([1]; 303.15 K) was 1.67, the “sb × 10^6 (concentration in buffer)” value ([1]; 308.15 K) was 7.80 mol∙L^−1 (printed as sb × 10^6 and the “so × 10^4 (concentration in 1-octanol)” value ([1]; 308.15 K) was 3.91 mol∙L^−1 (printed as so × 10^4. The “xb × 10^7 (mole fraction in buffer)” value ([1]; 308.15 K) was 1.42 mole fraction (printed as xb ×, the “xo × 10^5 (mole fraction in 1-octanol)” value ([1]; 308.15 K) was 6.24 mole fraction (printed as xo × and the “sb × 10^6 (concentration in buffer)” value ([1]; 313.15 K) was 7.36 mol∙L^−1 (printed as sb × 10^6. The “so × 10^4 (concentration in 1-octanol)” value ([1]; 313.15 K) was 3.92 mol∙L^−1 (printed as so × 10^4, the “xb × 10^7 (mole fraction in buffer)” value ([1]; 313.15 K) was 1.35 mole fraction (printed as xb × and the “xo × 10^5 (mole fraction in 1-octanol)” value ([1]; 313.15 K) was 6.28 mole fraction (printed as xo ×. For the same compound, the “activity relative to fluconazole” value (C. utilis 84) was “comparable”, the MIC (C. utilis 84; Williopsis jadinii, 35 °C, 24 h, read-out: MIC) was 2 µg/mL (≈ 3.03 µM) and the “MIC relative to the reference value (fluconazole)” value (C. glabrata 61L) was “four times less”. For the same compound, the MIC (C. glabrata 61L; Nakaseomyces glabratus, 35 °C, 24 h, read-out: MIC) was 2 µg/mL (≈ 3.03 µM), the advantage over fluconazole ([2]; MIC ratio) was 8 fold and the MIC ([2]; Lodderomyces parapsilosis, ATCC22019, 35 °C, 24 h, read-out: MIC) was 0.25 µg/mL (≈ 0.379 µM). The “T∆trS^o” value [3] was 24.3 ± 1.0 kJ/mol, the “∆trG^o” value [3] was -14.8 ± 0.2 kJ/mol and the “∆trH^o” value [3] was 9.5 ± 0.1 kJ/mol. For the same compound, the “∆trS^o” value [3] was 81.5 ± 1.5 J·mol^−1·K^−1.
